Data on six molecules can be found in ChEMBL document CHEMBL2150977, “Synthesis of highly water-soluble fibrate derivatives via BGLation” (Bioorg Med Chem Lett, 2012).

Active and inactive are the calls of the source. No cut-off for these calls is given here. Bounds are passed on as bounds.

The subject of data set [1] is Rattus norvegicus. Description: Drug metabolism in Sprague-Dawley rat assessed as fenofibric acid level in plasma at 150 mg/kg, po after 4 hrs. It is filed as ADME, organism-based. Further details: dose 150 mg/kg, route oral. The settings on record: in vivo.
The test system of data set [2] is Rattus norvegicus. Description: Toxicity in Sprague-Dawley rat assessed as aberrant behaviour at […], po relative to vehicle-treated control. It is filed as organism-based. The settings on record: in vivo.
Data set [3] relates to Rattus norvegicus. Description: Toxicity in Sprague-Dawley rat assessed as body weight loss at […], po relative to vehicle-treated control. It is filed as organism-based. The settings on record: in vivo.
Data set [4] deals with Rattus norvegicus. Description: Antihyperlipidemic activity in Sprague-Dawley rat assessed as decrease in plasma triglyceride level at […], po administered QD for 8 days relative to vehicle-treated control. It counts as functional, organism-based.
Data set [5] is described as follows: Aqueous solubility of the compound. It counts as physicochemical. The settings on record: water.
The test system of data set [6] is Rattus norvegicus. Kind of data set: Drug metabolism in Sprague-Dawley rat assessed as fenofibric acid level in plasma at 100 mg/kg, po after 4 hrs. It is filed as ADME, organism-based. More on the design: dose 100 mg/kg, route oral. The settings on record: in vivo.

As usually defined, the solubility is the dissolved amount per volume that the medium holds. Low readings indicate little dissolved substance, high ones much dissolved substance. Turning to `CC(C)(Oc1ccc(C(=O)c2ccc(Cl)cc2)cc1)C(=O)OC(COC(CO)CO)COC(CO)CO`, in the data set on Rattus norvegicus [1], the Drug metabolism entry was “Active”. Further, the Activity result in the data set with Rattus norvegicus [2] and in the data set on Rattus norvegicus [3] was “Non-toxic” each time. Also, in the data set on Rattus norvegicus [4], the result was Active. The solubility in data set [5] is > 1000 µg/mL.

Take `CC(C)(Oc1ccc(C(=O)c2ccc(Cl)cc2)cc1)C(=O)OCCO`: the Activity result in the data set on Rattus norvegicus [2] and in the data set on Rattus norvegicus [3] was “Non-toxic” throughout. In the data set on Rattus norvegicus [4], the result was Active.

As for `CC(C)OC(=O)C(C)(C)Oc1ccc(C(=O)c2ccc(Cl)cc2)cc1` [FENOFIBRATE], the Drug metabolism result with Rattus norvegicus [6] was “Active”. The outcome with Rattus norvegicus [4] was Active.

For the molecule `CC(C)(Oc1ccc(CCNC(=O)c2ccc(Cl)cc2)cc1)C(=O)OC(COC(CO)CO)COC(CO)CO`, the solubility in data set [5] is > 1000 µg/mL.

Regarding `CC(C)(Oc1ccc(C(=O)c2ccc(Cl)cc2)cc1)C(=O)OC(CO)CO`, the Activity entry in the data set on Rattus norvegicus [2] and in the data set with Rattus norvegicus [3] was “Non-toxic” throughout. Also, in the data set on Rattus norvegicus [4], the outcome was Active.

`CC(C)(Oc1ccc(Cl)cc1)C(=O)OC(COC(CO)CO)COC(CO)CO`: the solubility in data set [5] was > 1000 µg/mL.
